These results are taken from patent US20060147564A1, “Composition for preventing or treating allergic disease using black rice extract and its therapeutic use” (CELLMICS CO. LTD, priority 2003, published 2006).

The subject of assay [1] is mice with asthma induced by ovalbumin. As to the kind of experiment: Inflammation in lung of mice with asthma induced by ovalbumin (microphotographs, Examples 2 and 4). The class given is in vivo, mice (C57BL/6). To be noted: intraperitoneal injection twice. The procedure:
At first, in order to prepare animal models of asthma, 200 μl of ovalbumin solution (ovalbumin 200 μg and alumina gel 1000 μg were dissolved in physiological saline) was injected in each abdominal cavity of twenty 10-week old female mice (C57BL/6, Damul Science, Daejeon, Korea). Two weeks later, 200 μl of ovalbumin solution(2% w/v) was sprayed on each mouse to sensitize it. 200 μl of 1% ovalbumin solution was sprayed again on the 21st, the 22nd and the 23rd day, and 10% ovalbumin solution was sprayed again on the 25th day to sensitize.
The above mice with asthma induced by sensitizing with 10% ovalbumin were divided into two groups; one was used as a negative control group treated with nothing and the other was treated with 10 mg/kg of black rice extract. Black rice extract was administered by intraperitoneal injection and the injection was performed twice on the 24th and the 25th day from the treatment of ovalbumin.
48 hours after the treatment of black rice extract, mice were sacrificed using ether. Inflammation in lung of each mouse was investigated. […] Therefore, it was confirmed that black rice extract could inhibit asthma effectively. […]

Assay [2] has the same test system. The assay is described as follows: Accumulation of eosinophiles in airway (BALF cell count) of mice with asthma induced by ovalbumin (Example 3). The assay is classed as in vivo, mice (C57BL/6). To be noted: FIG. 2; for percentage of eosinophiles in airway: intraperitoneal injection twice, ovalbumin-exposed mice 58%. How it is done: At first, in order to prepare animal models of asthma, 200 μl of ovalbumin solution (ovalbumin 200 μg and alumina gel 1000 μg were dissolved in physiological saline) was injected in each abdominal cavity of twenty 10-week old female mice (C57BL/6, Damul Science, Daejeon, Korea). Two weeks later, 200 μl of ovalbumin solution(2% w/v) was sprayed on each mouse to sensitize it. 200 μl of 1% ovalbumin solution was sprayed again on the 21st, the 22nd and the 23rd day, and 10% ovalbumin solution was sprayed again on the 25th day to sensitize. […] Each compound was administered by intraperitoneal injection and the injection was performed twice on the 24th and the 25th day from the treatment of ovalbumin. On the second day from the treatment, each mouse was sacrificed using ether. Then, a microtube was connected to trachea. PBS (phosphate-buffered saline, 0.8 ml) was injected and recovered through the microtube, which was repeated twice, resulting in the obtainment of bronchoalveolar lavage fluid (BALF). The fluid was centrifuged to separate cells in airway lumen and various proteins secreted from the cells and lung. The separated cells were fixed on a slide using cytospin and stained with Diff-Quick staining solution. Photographs were taken by a digital camera attached on Carzeiss microscope (model: […]). 5 random regions per each sample were picked to count eosinophiles, and the percentage of eosinophiles in each sample was shown in FIG. 2.

The test system is the same in assay [3]. As to the kind of experiment: Accumulation of eosinophiles in airway (BALF cell count) of mice with asthma induced by ovalbumin (Example 5). The class given is in vivo, mice (Balb/c). The following applies: 2nd to 23rd day, negative control 62.7 ± 4.3, n=5. The procedure: (§1) In order to prepare animal models with asthma, 0.5 ml of ovalbumin solution (500 μg of ovalbumin and 10 mg of alumina gel were dissolved in 1 ml of PBS) was injected into abdominal cavities of twenty 5-week old female mice(Balb/c, Orient, Seoul) on first and 10th experiment day. The ovalbumin solution was sprayed on each mouse on the 21st, the 22nd and the 23rd day to induce asthma.
(§2) Mice (n=15) with asthma induced by ovalbumin were divided into three groups; one was used as a negative control treated with nothing and two other groups were used as experimental groups each treated with cyanidin glycoside by 1.5 mg/kg and 4.5 mg/kg, respectively. Cyanidin glycoside was orally administered once a day in succession from the 2nd day to the 23rd day.
24 hours after final sensitization, each mouse was sacrificed using ether and a microtube was connected into trachea. 0.8 ml of PBS was injected and recovered through the microtube, which was repeated twice. The obtained bronchoalveolar lavage fluid (BALF) was centrifuged to separate cells in airway lumen and various proteins secreted from the cells and lung.
The separated cells were fixed on a slide using cytospin and stained with Diff-Quick staining solution. Photographs were taken by a digital camera attached on Carzeiss microscope (model: AXIOVERT 25-CEL). 5 random regions per each sample were picked to count eosinophiles, and the percentage of eosinophiles in each sample was represented in Table 1.

For assay [4] the test system is unchanged. As to the kind of experiment: Inflammation in lung of mice with asthma induced by ovalbumin (microphotographs, Example 5). The class given is in vivo, mice (Balb/c). The following applies: 1.5 mg/kg and 4.5 mg/kg orally once a day; FIG. 4C and 4D. The procedure: as §1, §2
Precisely, as cyanidin glycoside concentration increased, the percentage of eosinophiles in airway decreased to 49% and 38% each; compared with a negative control. […] Inflammation in lung cells of the sacrificed mice was also investigated and the result was represented in FIG. 4.

`Oc1ccc(-c2[o+]c3cc(O)cc(O)c3cc2O)cc1.[Cl-]` [pelargonidin, 3,5,7-trihydroxy-2-(4-hydroxyphenyl)-1-benzopyrylium chloride]: the inflammation-inhibiting effect entry in assay [1] (0.5 mg/kg, data not shown) was “outstanding”. Besides, the inflammation in bronchi result in assay [1] (1.25 mg/kg, 48 hours after treatment, FIG. 3) is given as “remarkably reduced”. Further, the “accumulation of eosinophiles in airway” value in assay [2] (0.5 mg/kg and 1.25 mg/kg, intraperitoneal injection) is listed as “inhibited”. The entries for the “percentage of eosinophiles in airway” value in assay [2] (0.5 mg/kg) and in assay [2] (1.25 mg/kg) were 30% and 20%, respectively.

On to `OC[C@H]1O[C@@H](Oc2cc3c(O)cc(O)cc3[o+]c2-c2ccc(O)c(O)c2)[C@H](O)[C@@H](O)[C@@H]1O` [Cyanidin glycoside, cyanidin 3-O-β-glucopyranoside], for which the Percentage of eosinophiles in assay [3] (1.5 mg/kg orally once a day) worked out at 49.5 ± 5.8 %; in assay [3] (1.5 mg/kg orally once a day, listed as cyanidin glycoside), 49%; in assay [3] (4.5 mg/kg orally once a day), 38.2 ± 6.2 %; in assay [3] (4.5 mg/kg orally once a day, listed as cyanidin glycoside), 38%. Further, the inflammation in bronchi result in assay [4] is recorded as “remarkably reduced”.
